Laboratory results from patent US20090227619A1, “Harmine derivatives, intermediates used in their preparations, preparation processes and use therefo” (priority 2003, published 2009).
Where two headings read alike, the source gives them in different places.

Columns and labels:
PLA-801 = test: In vitro cytotoxicity, IC50 by MTT method, PLA-801; type: cell-based
Summary of the method: (§1)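 Cells in RPMI1640 with 10% FBS at 37° C, 5% CO2 were seeded at 10^5/ml and exposed to a compound concentration gradient for 48 h, at least three replicates, solvent controls.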

in vivo = conditions: both, Kunming, mouse, ip
S180 sarcoma = conditions: S180 sarcoma; for Body weight of the animals, beginning, First time / Body weight of the animals, end, First time / Inhibition rate, First time / Weight of the tumor X ± SD, First time / Body weight of the animals, beginning, Second time / Body weight of the animals, end, Second time / Inhibition rate, Second time: ip × 10qd; for Inhibition rate (%) S180 sarcomata: comparison table 43, in vivo
Lewis lung cancer = conditions: Lewis lung cancer; for Body weight of the animals, end, First time / Body weight of the animals, end, Second time: ip × 10qd; for Inhibition rate (%) Lewis cancer: comparison table 43, in vivo;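 for all read-outs here: mice implanted subcutaneously in the axilla with Lewis lung tumor cells, treated starting the following day, killed roughly three weeks after implantation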
Hela = test: In vitro cytotoxicity, IC50 by MTT method, Hela; type: cell-based; conditions: Homo sapiens
Summary of the method: as §1

Kunming mice = conditions: for Death rate: single i.p.; for LD50: mouse, in vivo, ip
NIH3T3 = test: In vitro cytotoxicity, IC50 by MTT method, NIH3T3; type: cell-based; conditions: Mus musculus
Summary of the method: as §1

Lovo = test: In vitro cytotoxicity, IC50 by MTT method, Lovo; type: cell-based; conditions: Homo sapiens
Summary of the method: as §1

BGC-823 = test: In vitro cytotoxicity, IC50 by MTT method, BGC-823; type: cell-based; conditions: Homo sapiens, BGC-823
Summary of the method: as §1

Bel-7402 = test: In vitro cytotoxicity, IC50 by MTT method, Bel-7402; type: cell-based; conditions: Homo sapiens, Bel-7402
Summary of the method: as §1

HepG2 = test: In vitro cytotoxicity, IC50 by MTT method, HepG2; type: cell-based, human; conditions: Homo sapiens
Summary of the method: as §1

CT-DNA = test: DNA thermal denaturation, determination of ΔTm; type: binding; conditions: 20 uM compound, Tm of CT-DNA alone 61° C.
Description: Experiments were carried out in PE buffer (1 mM Na2HPO4, 0.1 mM EDTA, pH 7.6) in a thermostatically controlled cell hold, and the quartz cuvette (1 cm path length) was heated by circulating water at a heating rate of 0.5° C./min from 25 to 95° C. Amsacrine and Doxorubicin Hydrochloride were used as standards. In all cases, the concentration of CT-DNA was 15 ug/ml. The ‘melting’ temperature Tm was taken as the mid-point of the hyperchromic transition.
ΔTm=Tm^drug-DNA complex−Tm^DNA alone
The ΔTm of each compound was calculated, Experiments were repeated three times, and an average value was calculated.

[1] = 50% male 50% female mice, 240 mg/kg
[2] = 50% male 50% female mice, 300 mg/kg
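Throughout, for Death rate: acute toxicity in Kunming mice grouped by sex, one intraperitoneal dose at five graded levels in Tween-80 plus 0.5% CMC-Na, deaths monitored over two weeks.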
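Throughout, for LD50: acute toxicity in Kunming mice grouped by sex, one intraperitoneal dose at five graded levels in Tween-80 plus 0.5% CMC-Na, deaths monitored over two weeks.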

CCOC(=O)c1cc2c([nH]c3ccccc32)c(C)n1 [Compound 11, ethyl 1-methyl-β-carboline-3-carboxylate]
IC50 (PLA-801; PLA-801, MTT, read-out: IC50): 260 µM | LD50 at 2 weeks (in vivo): 183 mg/kg | Body weight of the animals, beginning, First time (S180 sarcoma; Dosage 25 (mg/ml)): 19.5 g | Body weight of the animals, end, First time (S180 sarcoma; Dosage 25 (mg/ml)): 26.3 g | Inhibition rate, First time (S180 sarcoma; Dosage 25 (mg/ml)): 34.74% | Weight of the tumor X ± SD, First time (S180 sarcoma; Dosage 25 (mg/ml)): 1.86 ± 0.18 g | Body weight of the animals, beginning, Second time (S180 sarcoma; Dosage 25 (mg/ml)): 20.4 g | Body weight of the animals, end, Second time (S180 sarcoma; Dosage 25 (mg/ml)): 24.2 g | Inhibition rate, Second time (S180 sarcoma; Dosage 25 (mg/ml)): 31.93% | Weight of the tumor X ± SD, Second time (S180 sarcoma; Dosage 25, ip × 10qd): 1.94 ± 0.16 g | Body weight of the animals, beginning, First time (S180 sarcoma; Dosage 50 (mg/ml)): 19.5 g | Body weight of the animals, end, First time (S180 sarcoma; Dosage 50 (mg/ml)): 25.9 g | Inhibition rate, First time (S180 sarcoma; Dosage 50 (mg/ml)): 44.21% | Weight of the tumor X ± SD, First time (S180 sarcoma; Dosage 50 (mg/ml)): 1.59 ± 0.16 g | Body weight of the animals, beginning, Second time (S180 sarcoma; Dosage 50 (mg/ml)): 20.6 g | Body weight of the animals, end, Second time (S180 sarcoma; Dosage 50 (mg/ml)): 23.9 g | Inhibition rate, Second time (S180 sarcoma; Dosage 50 (mg/ml)): 43.16% | Weight of the tumor X ± SD, Second time (S180 sarcoma; Dosage 50, ip × 10qd): 1.62 ± 0.38 g | Inhibition rate (%) S180 sarcomata (S180 sarcoma): 44.21% | Body weight of the animals, end, First time (Lewis lung cancer; Dosage 25 (mg/ml)): 23.4 g | Body weight of the animals, end, Second time (Lewis lung cancer; Dosage 25 (mg/ml)): 24.5 g | Body weight of the animals, beginning, First time (Lewis lung cancer; Dosage 25, ip × 10qd): 18.7 g | Inhibition rate, First time (Lewis lung cancer; Dosage 25, ip × 10qd): 29.08% | Weight of the tumor X ± SD, First time (Lewis lung cancer; Dosage 25, ip × 10qd): 1.78 ± 0.16 g | Body weight of the animals, beginning, Second time (Lewis lung cancer; Dosage 25, ip × 10qd): 19.9 g | Inhibition rate, Second time (Lewis lung cancer; Dosage 25, ip × 10qd): 33.05% | Weight of the tumor X ± SD, Second time (Lewis lung cancer; Dosage 25, ip × 10qd): 1.58 ± 0.09 g | Body weight of the animals, end, First time (Lewis lung cancer; Dosage 50 (mg/ml)): 23.0 g | Body weight of the animals, end, Second time (Lewis lung cancer; Dosage 50 (mg/ml)): 23.8 g | Body weight of the animals, beginning, First time (Lewis lung cancer; Dosage 50, ip × 10qd): 18.3 g | Inhibition rate, First time (Lewis lung cancer; Dosage 50, ip × 10qd): 44.22% | Weight of the tumor X ± SD, First time (Lewis lung cancer; Dosage 50, ip × 10qd): 1.40 ± 0.16 g | Body weight of the animals, beginning, Second time (Lewis lung cancer; Dosage 50, ip × 10qd): 19.8 g | Inhibition rate, Second time (Lewis lung cancer; Dosage 50, ip × 10qd): 42.8% | Weight of the tumor X ± SD, Second time (Lewis lung cancer; Dosage 50, ip × 10qd): 1.35 ± 0.14 g | Inhibition rate (%) Lewis cancer (Lewis lung cancer): 44.22% | IC50 (Hela; Hela, MTT, read-out: IC50): 100 µM | Death rate (Kunming mice; [1]): 90 | Death rate (Kunming mice; [2]): 100 | Death rate (Kunming mice; female mice, 240 mg/kg): 100 | Death rate (Kunming mice; female mice, 300 mg/kg): 100 | Death rate (Kunming mice; male mice, 240 mg/kg): 80 | Death rate (Kunming mice; male mice, 300 mg/kg): 100 | LD50 (Kunming mice): 159 to 211 mg/kg | IC50 (NIH3T3; NIH3T3, MTT, read-out: IC50): 100 µM | IC50 (Lovo; Lovo, MTT, read-out: IC50): 80 µM | IC50 (BGC-823; BGC823, MTT, read-out: IC50): 110 µM | IC50 (Bel-7402; BeI7402, MTT, read-out: IC50): 230 µM | IC50 (HepG2; HepG2, MTT, read-out: IC50): 90 µM

OCc1cc2c3ccccc3n(Cc3ccccc3)c2cn1 [Compound 42, 9-benzyl-3-hydroxymethyl-β-carboline]
IC50 (PLA-801; PLA-801 cell strain, read-out: IC50 PLA-801): 160 µM | LD50 at 2 weeks (in vivo): 247 mg/kg | Body weight of the animals, beginning, First time (S180 sarcoma; Dosage 50 (mg/ml)): 19.5 g | Body weight of the animals, end, First time (S180 sarcoma; Dosage 50 (mg/ml)): 24.7 g | Inhibition rate, First time (S180 sarcoma; Dosage 50 (mg/ml)): 19.10% | Weight of the tumor X ± SD, First time (S180 sarcoma; Dosage 50 (mg/ml)): 2.16 ± 0.38 g | Body weight of the animals, beginning, Second time (S180 sarcoma; Dosage 50 (mg/ml)): 18.4 g | Body weight of the animals, end, Second time (S180 sarcoma; Dosage 50 (mg/ml)): 25.6 g | Inhibition rate, Second time (S180 sarcoma; Dosage 50 (mg/ml)): 20.74% | Weight of the tumor X ± SD, Second time (S180 sarcoma; Dosage 50, ip × 10qd): 2.14 ± 0.23 g | Body weight of the animals, beginning, First time (S180 sarcoma; Dosage 100 (mg/ml)): 19.2 g | Body weight of the animals, end, First time (S180 sarcoma; Dosage 100 (mg/ml)): 24.3 g | Inhibition rate, First time (S180 sarcoma; Dosage 100 (mg/ml)): 28.09% | Weight of the tumor X ± SD, First time (S180 sarcoma; Dosage 100 (mg/ml)): 1.92 ± 0.25 g | Body weight of the animals, beginning, Second time (S180 sarcoma; Dosage 100 (mg/ml)): 18.9 g | Body weight of the animals, end, Second time (S180 sarcoma; Dosage 100 (mg/ml)): 25.1 g | Inhibition rate, Second time (S180 sarcoma; Dosage 100 (mg/ml)): 25.15% | Weight of the tumor X ± SD, Second time (S180 sarcoma; Dosage 100, ip × 10qd): 2.02 ± 0.36 g | Inhibition rate (%) S180 sarcomata (S180 sarcoma): 28.09% | Body weight of the animals, end, First time (Lewis lung cancer; Dosage 50 (mg/ml)): 24.7 g | Body weight of the animals, end, Second time (Lewis lung cancer; Dosage 50 (mg/ml)): 24.7 g | Body weight of the animals, beginning, First time (Lewis lung cancer; Dosage 50, ip × 10qd): 20.0 g | Inhibition rate, First time (Lewis lung cancer; Dosage 50, ip × 10qd): 22.22% | Weight of the tumor X ± SD, First time (Lewis lung cancer; Dosage 50, ip × 10qd): 2.14 ± 0.26 g | Body weight of the animals, beginning, Second time (Lewis lung cancer; Dosage 50, ip × 10qd): 19.1 g | Inhibition rate, Second time (Lewis lung cancer; Dosage 50, ip × 10qd): 26.96% | Weight of the tumor X ± SD, Second time (Lewis lung cancer; Dosage 50, ip × 10qd): 1.89 ± 0.14 g | Body weight of the animals, end, First time (Lewis lung cancer; Dosage 100 (mg/ml)): 25.1 g | Body weight of the animals, end, Second time (Lewis lung cancer; Dosage 100 (mg/ml)): 25.1 g | Body weight of the animals, beginning, First time (Lewis lung cancer; Dosage 100, ip × 10qd): 20.3 g | Inhibition rate, First time (Lewis lung cancer; Dosage 100, ip × 10qd): 33.33% | Weight of the tumor X ± SD, First time (Lewis lung cancer; Dosage 100, ip × 10qd): 1.62 ± 0.12 g | Body weight of the animals, beginning, Second time (Lewis lung cancer; Dosage 100, ip × 10qd): 18.9 g | Inhibition rate, Second time (Lewis lung cancer; Dosage 100, ip × 10qd): 34.47% | Weight of the tumor X ± SD, Second time (Lewis lung cancer; Dosage 100, ip × 10qd): 1.92 ± 0.26 g | Inhibition rate (%) Lewis cancer (Lewis lung cancer): 34.47% | IC50 (Hela; Hela cell strain, read-out: IC50 Hela): 120 µM | Death rate (Kunming mice; [1]): 50 | Death rate (Kunming mice; [2]): 80 | Death rate (Kunming mice; female mice, 240 mg/kg): 60 | Death rate (Kunming mice; female mice, 300 mg/kg): 80 | Death rate (Kunming mice; male mice, 240 mg/kg): 40 | Death rate (Kunming mice; male mice, 300 mg/kg): 80 | LD50 (Kunming mice): 214 to 286 mg/kg | IC50 (NIH3T3; NIH3T3 cell strain, read-out: IC50 NIH3T3): 90 µM | IC50 (Lovo; Lovo cell strain, read-out: IC50 Lovo): 100 µM | IC50 (BGC-823; BGC823 cell strain, read-out: IC50 BGC823): 110 µM | IC50 (Bel-7402; Bel7402 cell strain, read-out: IC50 Bel7402): 110 µM | IC50 (HepG2; HepG2 cell strain, read-out: IC50 HepG2): 90 µM | ΔTm (CT-DNA; CT-DNA 15 ug/ml, PE buffer pH 7.6): −0.3 °C | ΔTm (CT-DNA; CT-DNA thermal denaturation): −0.3 °C
